Results: ChEMBL document CHEMBL5042527, “Neochrysosporazines: Precursor-Directed Biosynthesis Defines a Marine-Derived Fungal Natural Product P-Glycoprotein Inhibitory Pharmacophore” (J Med Chem, 2022)

Assay: Metabolic stability of the compound in human SW620/AD300 cells assessed as production of metabolite -Deacetylchrysosporazine C at 2.5 uM for 2 to 48 hrs
Assay type: ADME, cell-based
Details: sw620/ad300, 2.5 µM, time 2-48 hrs

Row | SMILES | Stability
1 | COc1cc([C@H]2c3ccccc3C(=O)N3C[C@H](Cc4ccccc4)N(C(C)=O)C[C@H]23)cc2c1OCO2 | Stable

Assay: Metabolic stability of the compound in human SW620/AD300 cells assessed as production of metabolite -Deacetylchrysosporazine J at 2.5 uM for 2 to 48 hrs
Assay type: ADME, cell-based
Details: sw620/ad300, 2.5 µM, time 2-48 hrs

Row | SMILES | Stability
2 | COc1c2c(cc3c1[C@H](c1ccccc1)[C@H]1C(=O)N4C[C@H](Cc5ccccc5)N(C(C)=O)C[C@@H]4[C@@H]31)OCO2 | Stable

Assay: Cytotoxicity against human […] cells overexpressing P-glycoprotein measured after 48 hrs by MTT assay
Assay type: functional, cell-based
Details: not given

Row | SMILES | IC50 [µM]
3 | COc1cc(C[C@H]2CN3C(=O)/C(=C/c4ccc(O)cc4)[C@H](c4cc(OC)c5c(c4)OCO5)[C@H]3CN2C(C)=O)cc2c1OCO2 | > 30
4 | COc1cc(C[C@H]2CN3C(=O)[C@]4(O)[C@@H](c5ccccc5)c5c(cc6c(c5OC)OCO6)[C@@H]4[C@H]3CN2C(C)=O)cc2c1OCO2 | > 30
5 | COc1cc([C@H]2c3ccncc3C(=O)N3C=CN(C(C)=O)C[C@H]23)cc2c1OCO2 | > 30
6 | COc1cc([C@H]2c3cccnc3C(=O)N3C[C@H](C(=O)c4ccccc4)NC[C@H]23)cc2c1OCO2 | > 30
7 | COc1cc([C@H]2/C(=C\c3ccccc3)C(=O)N3C[C@H](Cc4ccccc4)N(C(C)=O)C[C@H]23)cc2c1OCO2 | > 30
8 | COc1c2c(cc3c1[C@H](c1ccccc1)[C@H]1C(=O)N4C[C@H](Cc5ccccc5)N(C(C)=O)C[C@@H]4[C@@H]31)OCO2 | > 30
9 | C=C(c1ccccc1)[C@H]1CN2C(=O)c3ccncc3[C@H](c3cc(OC)c4c(c3)OCO4)[C@H]2CN1 | > 30
10 | COc1cc(C[C@H]2CN(C(C)=O)[C@@H](Cc3ccccc3)CN2C(=O)c2ccccc2)cc(OC)c1O | > 30
11 | CC(=O)N1C[C@H](Cc2ccccc2)N(C(=O)c2ccccc2)C[C@@H]1Cc1ccccc1 | > 30
12 | COc1cc([C@H]2c3ccccc3C(=O)N3C[C@@H](C(=O)c4ccccc4)N(C(C)=O)C[C@H]23)cc(OC)c1O | > 30
13 | COc1cc([C@@H]2[C@H]3CN(C(C)=O)[C@@H](Cc4ccccc4)CN3C(=O)[C@@]23O[C@H]3c2ccccc2)cc2c1OCO2 | > 30
14 | C=C(c1ccccc1)[C@H]1CN2C(=O)c3ncccc3[C@H](c3cc(OC)c4c(c3)OCO4)[C@H]2CN1 | > 30
15 | COc1cc(C[C@H]2CN(C(C)=O)[C@@H](Cc3ccccc3)CN2C(=O)/C=C/c2ccccc2)cc2c1OCO2 | > 30
16 | COc1cc([C@H]2c3cccnc3C(=O)N3C=CN(C(C)=O)C[C@H]23)cc2c1OCO2 | > 30
17 | CC(=O)N1C[C@H](Cc2cc(O)c3c(c2)OCO3)N(C(=O)c2ccccc2)C[C@@H]1Cc1ccccc1 | > 30
18 | COc1cc(/C=C2/C(=O)N3C[C@H](Cc4cc(OC)c5c(c4)OCO5)N(C(C)=O)C[C@@H]3[C@H]2c2cc(OC)c3c(c2)OCO3)ccc1O | > 30
19 | COc1cc([C@H]2c3cnccc3C(=O)N3C[C@H](C(=O)c4ccccc4)N(C(C)=O)C[C@H]23)cc2c1OCO2 | > 30
20 | COc1cc(C[C@H]2CN(C(=O)/C=C/c3ccccc3)[C@@H](Cc3cc(OC)c4c(c3)OCO4)CN2C(C)=O)cc2c1OCO2 | > 30
21 | COc1cc(C[C@H]2CN(C(=O)c3ccccc3)[C@@H](Cc3cc(OC)c4c(c3)OCO4)CN2C(C)=O)cc2c1OCO2 | > 30
22 | COc1cc(C[C@H]2CN3C[C@@H]4[C@@H](c5ccccc5)c5c(cc6c(c5OC)OCO6)[C@@H]4[C@H]3CN2)cc2c1OCO2 | > 30
23 | COc1cc([C@H]2c3cnccc3C(=O)N3C[C@H](Cc4ccccc4)N(C(C)=O)C[C@H]23)cc2c1OCO2 | > 30
24 | COc1cc(C[C@H]2CN3C(=O)/C(=C/c4ccccc4)[C@H](c4cc(OC)c5c(c4)OCO5)[C@H]3CN2C(C)=O)cc2c1OCO2 | > 30
25 | COC1=C[C@]2(C[C@H]3CN(C(C)=O)[C@@H](Cc4ccccc4)CN3C2=O)OC1=O | > 30
26 | COc1cc(C[C@H]2CN(C(C)=O)[C@@H](Cc3ccccc3)CN2C(=O)c2ccncc2)cc2c1OCO2 | > 30
27 | C=C(c1ccccc1)[C@H]1CN2C(=O)c3ccccc3[C@H](c3cc(OC)c4c(c3)OCO4)[C@H]2CN1 | > 30
28 | COc1cc([C@H]2c3ccccc3C(=O)N3C[C@H](C(=O)c4ccccc4)N(C(C)=O)C[C@H]23)cc2c1OCO2 | > 30
29 | COc1cc(/C=C2/C(=O)N3C[C@H](Cc4ccccc4)N(C(C)=O)C[C@@H]3[C@H]2c2cc(OC)c3c(c2)OCO3)ccc1O | > 30

Row | SMILES | IC50 [µM]
30 | COc1cc([C@H]2c3cnccc3C(=O)N3C[C@H](C(=O)c4ccccc4)NC[C@H]23)cc2c1OCO2 | > 30
31 | COc1cc([C@H]2c3ccccc3C(=O)N3C[C@H](C(=O)c4ccccc4)N(C(C)=O)C[C@H]23)cc(OC)c1O | > 30
32 | COc1cc([C@H]2c3ccccc3C(=O)N3C[C@H](C(=O)c4ccccc4)NC[C@H]23)cc2c1OCO2 | > 30
33 | COc1cc([C@H]2c3ncccc3C(=O)N3C=CN(C(C)=O)C[C@H]23)cc2c1OCO2 | > 30
34 | COc1cc([C@H]2c3cccnc3C(=O)N3C[C@H](C(=O)c4ccccc4)N(C(C)=O)C[C@H]23)cc2c1OCO2 | > 30
35 | COc1cc(C[C@H]2CN3C(=O)[C@@H]4[C@@H](c5ccccc5)c5c(cc6c(c5OC)OCO6)[C@@H]4[C@H]3CN2C(C)=O)cc2c1OCO2 | > 30
36 | COc1cc([C@H]2c3cnccc3C(=O)N3C=CN(C(C)=O)C[C@H]23)cc2c1OCO2 | > 30
37 | COc1c2c(cc3c1[C@H](c1ccccc1)[C@H]1C(=O)N4C[C@H](Cc5ccccc5)NC[C@@H]4[C@@H]31)OCO2 | > 30
38 | COc1cc(C[C@H]2CN(C(C)=O)[C@@H](Cc3ccccc3)CN2C(=O)c2ccccn2)cc2c1OCO2 | > 30
39 | COc1cc(C[C@H]2CN3C(=O)[C@@]4(O[C@H]4c4ccccc4)[C@H](c4cc(OC)c5c(c4)OCO5)[C@H]3CN2C(C)=O)cc2c1OCO2 | > 30
40 | COc1cc(C[C@H]2CN(C(C)=O)[C@@H](Cc3ccccc3)CN2)cc(OC)c1O | > 30
41 | COc1cc(C[C@H]2CN(C(C)=O)[C@@H](Cc3ccccc3)CN2C(=O)c2cccnc2)cc2c1OCO2 | > 30
42 | COc1cc(/C=C/C(=O)N2C[C@H](Cc3cc(OC)c4c(c3)OCO4)N(C(C)=O)C[C@@H]2Cc2cc(OC)c3c(c2)OCO3)ccc1O | > 30
43 | CC(=O)N1C[C@H](Cc2ccccc2)N(C(=O)/C=C/c2ccccc2)C[C@@H]1Cc1ccccc1 | > 30
44 | COc1cc([C@H]2c3cccnc3C(=O)N3C[C@@H](C(=O)c4ccccc4)N(C(C)=O)C[C@H]23)cc2c1OCO2 | > 30
45 | COc1cc([C@H]2c3ccccc3C(=O)N3C[C@H](Cc4ccccc4)N(C(C)=O)C[C@H]23)cc2c1OCO2 | > 30
46 | COc1cc([C@H]2c3cnccc3C(=O)N3C[C@@H](C(=O)c4ccccc4)NC[C@H]23)cc2c1OCO2 | > 30
47 | COc1cc([C@H]2c3cnccc3C(=O)N3C[C@@H](C(=O)c4ccccc4)N(C(C)=O)C[C@H]23)cc2c1OCO2 | > 30
48 | COc1c2c(cc3c1[C@H](c1ccccc1)[C@@]1(O)C(=O)N4C[C@H](Cc5ccccc5)N(C(C)=O)C[C@@H]4[C@@H]31)OCO2 | > 30
49 | COc1cc([C@H]2c3ncccc3C(=O)N3C[C@H](C(=O)c4ccccc4)N(C(C)=O)C[C@H]23)cc2c1OCO2 | > 30
50 | COc1cc([C@H]2c3ncccc3C(=O)N3C[C@H](Cc4ccccc4)N(C(C)=O)C[C@H]23)cc2c1OCO2 | > 30
51 | COc1cc([C@H]2c3cccnc3C(=O)N3C[C@@H](C(=O)c4ccccc4)NC[C@H]23)cc2c1OCO2 | > 30
52 | COc1cc([C@H]2/C(=C\c3ccc(O)cc3)C(=O)N3C[C@H](Cc4ccccc4)N(C(C)=O)C[C@H]23)cc2c1OCO2 | > 30
53 | COc1cc([C@H]2c3cccnc3C(=O)N3C[C@H](Cc4ccccc4)N(C(C)=O)C[C@H]23)cc2c1OCO2 | > 30
54 | COc1cc([C@H]2c3ccccc3C(=O)N3C=CN(C(C)=O)C[C@H]23)cc2c1OCO2 | > 30
55 | COc1cc([C@H]2c3ccncc3C(=O)N3C[C@H](Cc4ccccc4)N(C(C)=O)C[C@H]23)cc2c1OCO2 | > 30

Assay: Metabolic stability of the compound in human SW620/AD300 cells assessed as production of metabolite -Deacetylchrysosporazine F at 2.5 uM for 2 to 48 hrs
Assay type: ADME, cell-based
Details: sw620/ad300, 2.5 µM, time 2-48 hrs

Row | SMILES | Stability
56 | COc1cc(C[C@H]2CN3C(=O)[C@@H]4[C@@H](c5ccccc5)c5c(cc6c(c5OC)OCO6)[C@@H]4[C@H]3CN2C(C)=O)cc2c1OCO2 | Stable

Assay: Metabolic stability of the compound in human SW620/AD300 cells assessed as production of metabolite -Deacetylchrysosporazine B at 2.5 uM for 2 to 48 hrs
Assay type: ADME, cell-based
Details: sw620/ad300, 2.5 µM, time 2-48 hrs

Row | SMILES | Stability
57 | COc1cc([C@H]2c3ccccc3C(=O)N3C[C@H](C(=O)c4ccccc4)N(C(C)=O)C[C@H]23)cc2c1OCO2 | Stable
